From patent publication US20030219831A1, “Split-hybrid system” (priority 2002, published 2003)

Key:
Assay type in all cases: cell-based
[1] = system: interactions between RAR and IDII; assay: Two-hybrid reporter assay, VP16-RAR and Gal4N-IDII co-expressed with Gal-TK-Luc; conditions: 1 mM retinoid acid; VP16-RAR + Gal4N-IDII, Gal-TK-Luc; ~120 fold without compound
Protocol: Two fusion proteins, VP16-RAR and Gal4N-IDII, were co-expressed in a cell containing a Gal-TK-Luc reporter gene construct. Unexpectedly, interactions between RAR and IDII led to a ˜120 fold induction of the reporter gene activity. In contrast, in the presence of 1 mM retinoid acid, interactions of IDII with RAR were blocked and induction of the reporter gene activity was reduced to only ˜7 fold.

[2] = system: interactions between RAR and IDII; assay: Retinoid acid split-hybrid system, NLS-HA-Mad-RAR and Gal4N-IDII with Gal-TK-Luc; set-up: dose or concentration left out as unconfirmed; conditions: Gal-TK-Luc, ~7.5 fold repression without compound
Excerpt: (§1) Next, two fusion proteins, NLS (nuclear localization signal)-HA (hemagglutinin)-Mad-RAR and Gal4N-IDII, were co-expressed in a cell containing a Gal-TK-Luc reporter gene construct. Unexpectedly, interactions between RAR and IDII led to a ˜7.5 fold repression of the reporter gene activity.

Gal-TK-Luc = assay: Specificity control, Gal-TK-Luc by itself or with co-transfection controls; conditions: Gal-TK-Luc by itself or with controls Gal4N-Mad, Gal4N-IDII and NLS-HA-Mad-RAR
Excerpt: as §1

[3] = system: interactions of Gal4N-IDII with SMRT-RAR; assay: Split-hybrid system, SMRT-RAR and Gal4N-IDII with Gal-RSV-Luc; conditions: Gal-RSV-Luc, 8.5-fold repression without compound
Excerpt: Next, two fusion proteins, SMRT-RAR and Gal4N-IDII, were co-expressed in a cell containing a Gal-RSV-Luc reporter gene construct. Unexpectedly, interactions of Gal4N-IDII with SMRT-RAR conferred 8.5-fold repression. This repression was reversed by retinoid acid treatment.

RAR and IDI1 = assay: Split-hybrid system with RED1 reporter, RAR and IDII; conditions: in the presence of retinoid acid

CC1=C(/C=C/C(C)=C/C=C/C(C)=C/C(=O)O)C(C)(C)CCC1 [retinoid acid]
induction of the reporter gene activity [1]: ~7 fold
reversal of repression of the reporter gene activity [2]: completely reversed
alteration of reporter gene activity of Gal-TK-Luc (Gal-TK-Luc): did not significantly alter
reversal of repression of the reporter gene [3]: reversed
red fluorescence from RED1 reporter (RAR and IDI1): detected
